“Also recorded” adds a separate entry of the source.
How the values were obtained:
[1] = system: TNFα expression in LPS induced THP-1 macrophages; assay: In vitro THP-1 assay: TNFα expression in LPS-induced THP-1 macrophages (ELISA of supernatant); type: cell-based, human; conditions: differentiated THP-1 cells, 60 min pre-incubation with compound (0.5 to 5 μM), 100 ng/ml LPS for 4-48 h, triplicates
Description: (§1) The human THP-1 cell line can be utilized as an in vitro model of cytokine expression as mediated by Lipopolysaccharide (LPS) or Tumor Necrosis Factorα [TNFα]. Monocytic THP-1 cells (ATCC; TIB-202) can be differentiated into macrophage-like cells expressing pro-inflammatory cytokines like TNFα, IL6 and IL1β upon induction with LPS or by TNFα (autocrine induction) itself. THP-1 cells are grown in modified RPMI-1640 medium (ATCC, Cat. No. 30-2001) supplemented with 10% FCS and 1% Pen/Strep. For cytokine inhibition assays, cells are seeded at a density of 5×10^5 cells/ml into 6-well plates in standard growth medium supplemented with 100 ng/ml PMA (Sigma, P1585) to induce differentiation into macrophage-like cells. After 24 hours, the medium is replaced with standard growth medium (without PMA) and the cells are incubated for another 48 hours to complete differentiation. After 72 h of differentiation, the medium is replaced with serum free growth medium, and CDK-inhibiting compounds as well as reference compounds such as positive and negative controls, each dissolved in DMSO are added at concentrations ranging from 0.5 to 5 μM (final concentration of DMSO in the well is 0.1%). Cells are incubated for 60 min with compounds prior to stimulation with 100 ng/ml LPS (Sigma, L2630) for another 4-48 hours. Supernatants are collected and assayed immediately for cytokine expression, e.g. for TNFα, IL-6 and IL-1b using commercially available sandwich ELISA assays (eBioscience, Cat. No 88-7346, 88-7066, 88-7010) or kept frozen at […] until evaluation. Concentrations of TNFα, IL6 and IL1β within the cell culture supernatants are measured by using commercial ELISA Kits (eBioscience) according to the manufacturers' instructions. CDK-inhibitory compounds #1, 5, 6, 8, and 9 were administered at to differentiated THP-1 cells in triplicates as described above (see section 2.). After 60 min of pre-incubation with test or reference compound (SB203580, a p38 inhibitor and BMS345541, an IKK-inhibitor) alone, cells were stimulated with LPS. After incubation for 4-48 h, supernatants were collected and ELISA based determinations of cytokine supernatant concentrations were performed as described in section 3, supra.

[2] = system: IL6 expression in LPS induced THP-1 macrophages; assay: In vitro THP-1 assay: IL6 expression in LPS-induced THP-1 macrophages (ELISA of supernatant); type: cell-based, human; conditions: differentiated THP-1 cells, 60 min pre-incubation with compound (0.5 to 5 μM), 100 ng/ml LPS for 4-48 h, triplicates
Description: as §1

SMILES: COc1cc(F)ccc1-c1ccnc(Nc2cccc(CS(N)(=O)=O)c2)n1 [Compound 5, {3-[4-(4-Fluoro-2-methoxy-phenyl)-pyrimidin-2-ylamino]-phenyl}-methanesulfonamide]
- inhibition of TNFα expression / protein concentration in the cell supernatant compared to vehicle (DMSO) [1]: significant inhibitory effect; also recorded: significant inhibition
- inhibition of IL6 protein concentration in the cell supernatant compared to vehicle (DMSO) [2]: significant inhibitory effect

SMILES: COc1ccccc1-c1ccnc(Nc2cccc(CS(N)(=O)=O)c2)n1 [Compound 1, {3-[4-(2-Methoxy-phenyl)-pyrimidin-2-ylamino]-phenyl}-methanesulfonamide]
- inhibition of TNFα expression / protein concentration in the cell supernatant compared to vehicle (DMSO) [1]: significant inhibitory effect; also recorded: significant inhibition
- inhibition of IL6 protein concentration in the cell supernatant compared to vehicle (DMSO) [2]: significant inhibitory effect

SMILES: COc1ccccc1-c1ccnc(Nc2cccc(CS(=O)(=O)NC3CC3)c2)n1 [Compound 6, N-Cyclopropyl-C-{3-[4-(2-methoxy-phenyl)-pyrimidin-2-ylamino]-phenyl}-methanesulfonamide]
- inhibition of TNFα expression / protein concentration in the cell supernatant compared to vehicle (DMSO) [1]: significant inhibitory effect; also recorded: significant inhibition
- inhibition of IL6 protein concentration in the cell supernatant compared to vehicle (DMSO) [2]: significant inhibitory effect

SMILES: COc1ccccc1-c1ccnc(Nc2cccc(CS(=O)(=O)N(C)CCO)c2)n1 [Compound 8, N-(2-Hydroxy-ethyl)-C-{3-[4-(2-methoxy-phenyl)-pyrimidin-2-ylamino]-phenyl}-N-methyl-methanesulfonamide]
- inhibition of TNFα expression / protein concentration in the cell supernatant compared to vehicle (DMSO) [1]: significant inhibitory effect; also recorded: significant inhibition
- inhibition of IL6 protein concentration in the cell supernatant compared to vehicle (DMSO) [2]: significant inhibitory effect

SMILES: COc1ccccc1-c1ccnc(Nc2cccc(CS(=O)(=O)CCO)c2)n1 [Compound 9, 2-{3-[4-(2-Methoxy-phenyl)-pyrimidin-2-ylamino]-phenylmethanesulfonyl}-ethanol]
- inhibition of TNFα expression / protein concentration in the cell supernatant compared to vehicle (DMSO) [1]: significant inhibitory effect; also recorded: significant inhibition
- inhibition of IL6 protein concentration in the cell supernatant compared to vehicle (DMSO) [2]: significant inhibitory effect

From patent US8436007B2, “Inhibitors of protein kinases” (Ingenium Pharmaceuticals GmbH, priority 2007, dated 2013)
